# Test results: patent US20230092389A1, “UNIT DOSES, AEROSOLS, KITS, AND METHODS FOR TREATING HEART CONDITIONS BY PULMONARY ADMINISTRATION” (InCarda Therapeutics, Inc., priority 2017, published 2023)
# Where two headings read alike, the source gives them in different places.
# Experiments:
# [1] = tested on: dogs with induced atrial fibrillation; format: in vivo, dog
# Procedure: Atrial Fibrillation Model: A venous catheter was placed in a peripheral vessel (i.e., cephalic) for administration of anesthetic. […] Following induction, animals were endotracheally intubated and mechanically ventilated (˜12 breaths/minute with a tidal volume of 200-300 mL). Subsequently, a cut-down on a jugular vein permitted introduction of a pacing lead into the right atrium. Transthoracic electrodes forming ECG lead II were placed. For test/vehicle article delivery, a 4F catheter was introduced through the trachea and wedged into a small airway, and a venous catheter was placed in a peripheral vessel (i.e., cephalic). […] Approximately 5 min after administration of this parasympathomimetic was started; the following experiments were performed: […] Observations were made for up to 10 minutes. […] Vehicle was only water.
# [2] = tested on: healthy volunteers; experiment: Phase 1 (FLE-001) pharmacodynamics, ECG intervals; format: in vivo, human; conditions: for magnitude of QRS prolongation: 1 min post-inhalation; for magnitude of QRS prolongation / maximal QRS interval prolongation: post-hoc population; for prolongation in PR interval duration: Cohort 3, 60 mg eTLD
# Procedure: The ECG recordings included: 1) Continuous real-time ECG telemetry for observation of patient safety starting at 12 hours pre-dose and continuing for 12 hours post-dose, 2) 12-lead ECGs for immediate review by medical staff to ascertain the safety of the procedures and drug administration were recorded at pre-specified (or any time as needed) before dosing (pre-dose) and after dosing (post-dose), and 3) continuous 12-lead ECG (cECG, iCardiac Holter monitoring) was recorded for 24 hours, starting 1 hour prior to dosing and up to 24 hours post dosing.
# [3] = tested on: anesthetized Yorkshire pigs; experiment: PD (hemodynamics, ECG intervals) after IV or IT in anesthetized pigs (Example 5); format: in vivo
# Procedure: All catheters were positioned under fluoroscopic guidance. […] Data are reported as means±SEM. Statistical analyses were performed using the SAS system (9.4) to apply ANOVA with a post-hoc Dunnett's test. Statistical significance was assumed at p<0.05.
# [4] = tested on: pigs with induced atrial fibrillation; experiment: Cardioversion of induced AF by IT flecainide, intact porcine model (Example 6); format: in vivo, Yorkshire pigs
# Procedure: After 30-min recovery, the alternate intervention was tested. Times for conversion to normal sinus rhythm were compared.
# [5] = tested on: healthy volunteers; conditions: in vivo
# Procedure: (§1) 3 cohorts of subjects, in total 34 healthy adult volunteers, were recruited for Part A study.
# (§2) Part B was an open label non-randomized crossover in a cohort of 6 evaluable healthy adult volunteers.
# In addition, the effects of changing posture from semi-recumbent to seated upright, vice-versa and during inhalation on HR and BP were assessed (Cohort 5).
# [6] = in vivo
# Description: as §1, §2
# [7] = male, Yorkshire, pig, in vivo, iv, 2 mg/kg
# Procedure: The studies were carried out in male Yorkshire pigs (n=9) weighing 36±1.0 kg (mean±SEM). The pigs were pre-anesthetized with telazol (4.7 mg/kg, intramuscular) and subsequently further anesthetized using alpha-chloralose (80 mg/kg, IV bolus, followed by 24 mg/kg/h continuous IV infusion). The animals were intubated and ventilated at a constant rate of 12 breaths/min and tidal volume of 400 ml per stroke.
# Simultaneous blood samples were drawn from the pigtail catheter positioned in the LV and from a catheter in the jugular vein.
# The samples were centrifuged and frozen at −80° C. until drug level determination was performed using a bioanalytical assay method developed by Climax Laboratories, Inc.
# [8] = both, human, inhaled or intranasal, 20 mg
# [9] = both, human, inhaled or intranasal, 40 mg
# [10] = both, human, inhaled or intranasal, 60 mg
# 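Wherever Cmax of the two excluded subjects is given: measured in healthy adult volunteers.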
# 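Wherever Dist. t1/2α is given: measured in healthy adult volunteers.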
# 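Wherever Elim. t1/2β is given: measured in healthy adult volunteers.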
# 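Wherever Tmax (min after EOI) is given: measured in healthy adult volunteers.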
# 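Wherever Tmax in excluded subjects is given: measured in healthy adult volunteers.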
# 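Wherever concentration-time profile curves, IV normalized to 30 mg vs inhaled 30 mg eTLD is given: measured in healthy adult volunteers.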
# 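Wherever dose dependence of Cmax and AUCLast is given: measured in healthy adult volunteers.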
# 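Wherever dose dependence of distribution phase and elimination half-life is given: measured in healthy adult volunteers.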
# 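Wherever dose proportionality of venous plasma concentrations is given: measured in healthy adult volunteers.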
# 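Wherever elimination t1/2β is given: measured in healthy adult volunteers.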
# 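Wherever plasma concentration in subjects with near-equal ΔQRS (12.0 to 16 msec) is given: measured in healthy adult volunteers.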
# 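Wherever venous plasma concentration-time curves, inhaled vs IV is given: measured in healthy adult volunteers.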
smiles,measurement,setting,value
O=C(NCC1CCCCN1)c1cc(OCC(F)(F)F)ccc1OCC(F)(F)F (stereo not shown) [flecainide],ECG trace: Afib conversion,[1]; 2 mg/kg (FIG. 12),Afib converting as soon as dosing occurred
same,ECG trace: Afib conversion,[1]; 4 mg/kg by intra-tracheal instillation (FIG. 11),Afib converting into normal sinus rhythm
same,ventricular rate,[1]; large pulmonary doses,slower ventricular rates
same,effect on induced atrial fibrillation,[1]; pulmonary (IT) administration,rapidly converted the Atrial Fibrillation to normal sinus rhythm
same,conversion of induced atrial fibrillation to normal sinus rhythm,[1]; pulmonary dose 2-4 mg/kg body weight,converted the induced atrial fibrillation to normal sinus rhythm
same,cardiovascular effect when given by intratracheal instillation,[1]; summary of Example 2,clear cardiovascular effect
same,magnitude of QRS prolongation,[2]; 20 mg eTLD,3.0 ms
same,magnitude of QRS prolongation,[2]; 40 mg eTLD,8.2 ms
same,magnitude of QRS prolongation,[2]; 60 mg eTLD,16 ms
same,difference of QRS interval duration from pre-dose baseline,"[2]; 2 to 24 hours post-inhalation of 30 mg eTLD, baseline 78±2 msec",< 2 ms
same,PR interval,[2]; 8 and 24 hours post-IV infusion,fully returned to pre-drug baseline
same,QRS interval duration,"[2]; 30 min after completion of inhalation, 20-60 mg eTLD",returned to near pre-dose levels
same,PR interval longer than pre-drug baseline,[2]; 2 hours and beyond post-oral IH flecainide,approximately 2 msec
same,PR interval,"[2]; 2 hours and beyond post-oral IH flecainide, baseline 158.5 msec",160 ms
same,QRS interval duration longer than baseline,"[2]; 2 hours following IV infusion, baseline 78±2 msec",12.5 ms
same,PR interval longer than pre-drug baseline,"[2]; 2 hours post-IV infusion, baseline 161±3 msec",~12 ms
same,QRS interval duration longer than baseline,[2]; 24 hours following IV infusion,~7 ms
same,mean ΔPR,"[2]; Cohort 1, 20 mg eTLD, 1 minute post-dosing",-6 ms
same,mean ΔPR,"[2]; Cohort 1, 20 mg eTLD, 3 minutes post-dosing",-4.5 ms
same,mean ΔPR,"[2]; Cohort 1, 20 mg eTLD, 10 minutes to 4 hours after dosing",smaller than −3.0 msec
same,mean ΔQRS,"[2]; Cohort 1, 20 mg eTLD, between 1 and 3 minutes after end of inhalation",small increase
same,QRS duration,"[2]; Cohort 2, 40 mg eTLD, between 1 and 3 minutes post-dosing",transient increase
same,time of maximal increase in QRS interval duration,"[2]; Cohort 2, 40 mg eTLD, majority of subjects",1 min
same,prolongation in PR interval duration,[2]; 1 to 5 min,~5 ms
same,prolongation in PR interval duration,[2]; 10 and 15 minutes,up to 12 msec
same,non-specific intraventricular conduction delay,"[2]; Cohort 5, IV infusion",3 of 6 subjects
same,"maximal increase in QRS interval duration, mean (±SEM)","[2]; Cohort 5, IV infusion 2 mg/kg",34.2 ± 2.4 ms
same,duration of QRS widening,"[2]; Cohort 5, inhalation",15 to 30 min
same,"maximal increase in QRS interval duration, mean (±SEM)","[2]; Cohort 5, inhalation 30 mg eTLD",12.4 ± 2.6 ms
same,duration of QRS widening,"[2]; Cohort 5, intravenous",> 60 min
same,non-specific intraventricular conduction delay,"[2]; Cohort 5, oral inhalation eTLD 30 mg",not observed
same,duration of intraventricular conduction delay,"[2]; IV 2 mg/kg, 10 min infusion (FIG. 34)",5 to 10 min
same,maximal PR interval prolongation,[2]; IV infusion 2 mg/kg,25 ms
same,T-wave morphology,[2]; IV infusion 2 mg/kg (FIG. 36),T-wave notching
same,lower plasma concentration by inhalation for QRS prolongation of magnitude achieved by IV (6.2/2.7),[2]; Part B,2.3 fold
same,maximal QRS interval prolongation,[2]; eTLD 20 mg,3.5±1.0
same,"smaller change in QRS interval duration, inhalation vs IV infusion",[2]; eTLD 30 mg vs ~150 mg IV,2.7 fold
same,maximal QRS interval prolongation,[2]; eTLD 40 mg,10±1.5
same,maximal QRS interval prolongation,[2]; eTLD 60 mg,16±1.4
same,PR interval,"[2]; end of IV infusion 2 mg/kg, 164±1 msec 45 min prior",187 ± 6 ms
same,T-wave morphology,"[2]; inhalation 20, 30, 40 mg eTLD",No changes
same,lower plasma level following inhalation at similar ΔQRS,[2]; inhalation vs 5 min into IV infusion,2.6 fold
same,PR interval prolongation from start of inhalation,"[2]; inhaled 30 mg eTLD, 5 min after completion of inhalation",12 ms
same,changes of PR interval duration,[2]; inhaled 20 or 40 mg eTLD,Minimal or no changes
same,temporal relation between plasma concentration and ΔQRS,"[2]; non-steady state, IV and inhalation",changes in QRS interval duration lag those of the peripheral venous concentrations
same,maximal PR interval prolongation,[2]; oral inhalation 30 mg eTLD,12 ms
same,maximal decrease in QRS amplitude (average of several tracings),"[2]; subject R222, 40 mg eTLD",~480 μV
same,maximal increase in QRS duration (average of several tracings),"[2]; subject R222, 40 mg eTLD",~9 ms
same,increase in QRS duration (QRSd),"[2]; subject R222, 40 mg eTLD, 1 minute post-dosing",10 ms
same,decrease in amplitude of the R-wave (QRSa),"[2]; subject R222, 40 mg eTLD, 3 min post-dosing",400 μV
same,QRS duration,"[3]; IT 0.75 mg/kg, 2 min, baseline 58±1.8 ms",64 ± 1.6 ms
same,QRS duration,"[3]; IT 0.75 mg/kg, 5 min, baseline 58±1.8 ms",65 ± 1.7 ms
same,QRS duration,"[3]; IT 0.75 mg/kg, 30 min",58 ± 0.9 ms
same,mean arterial pressure,"[3]; IT 0.75 mg/kg, baseline 111±3.6 mmHg, p=0.9112",not significantly altered across 30 min
same,heart rate,"[3]; IT 0.75 mg/kg, baseline 111±6.4 bpm, p=0.9970",not significantly altered across 30 min
same,PR interval,"[3]; IT 0.75 mg/kg, baseline 130±5.3 ms, p=0.9351",not significantly changed across 30 min
same,JTc interval,"[3]; IT 0.75 mg/kg, baseline 354±12.0 ms, p=0.7605",not significantly changed across 30 min
same,QTc interval,"[3]; IT 0.75 mg/kg, baseline 435±12.9 ms, p=0.5505",not significantly changed across 30 min
same,QRS duration,"[3]; IT 1.5 mg/kg, 2 min, baseline 57±0.4 ms",68 ± 1.9 ms
same,QRS duration,"[3]; IT 1.5 mg/kg, 5 min",69 ± 2.2 ms
same,QRS duration,"[3]; IT 1.5 mg/kg, 10 min",67 ± 1.7 ms
same,QRS duration,"[3]; IT 1.5 mg/kg, 15 min",64 ± 1.3 ms
same,QRS duration,"[3]; IT 1.5 mg/kg, 30 min",60 ± 0.9 ms
same,mean arterial pressure,"[3]; IT 1.5 mg/kg, baseline 108±9.4 mmHg, p=0.9894",not significantly altered across 30 min
same,heart rate,"[3]; IT 1.5 mg/kg, baseline 118±13.2 bpm, p=0.9999",not significantly altered across 30 min
same,PR interval,"[3]; IT 1.5 mg/kg, baseline 127±2.3 ms, p=0.0819",not significantly changed across 30 min
same,JTc interval,"[3]; IT 1.5 mg/kg, baseline 364±11.5 ms, p=0.9968",not significantly changed across 30 min
same,QTc interval,"[3]; IT 1.5 mg/kg, baseline 436±7.1 ms, p=0.1510",not significantly changed across 30 min
same,heart rate,"[3]; IV 2 mg/kg over 2 min, baseline 103±1.9 bpm, p=0.9936",not significantly altered across 30 min
same,QRS duration,"[3]; IV 2 mg/kg, 2 min, baseline 58±1.9 ms",77 ± 6.2 ms
same,QRS duration,"[3]; IV 2 mg/kg, 5 min, baseline 58±1.9 ms",76 ± 4.8 ms
same,QRS duration,"[3]; IV 2 mg/kg, 30 min",59 ± 3.0 ms
same,mean arterial pressure,"[3]; IV 2 mg/kg, baseline 105±6.7 mmHg, p=0.8852",not significantly altered across 30 min
same,PR interval,"[3]; IV 2 mg/kg, baseline 127±7.8 ms, p=0.5161",not significantly changed across 30 min
same,JTc interval,"[3]; IV 2 mg/kg, baseline 367±7.4 ms, p=0.9686",not significantly changed across 30 min
same,QTc interval,"[3]; IV 2 mg/kg, baseline 442±7.9 ms, p=0.35",not significantly changed across 30 min
same,reduction of AF duration,[4]; IT 0.75 mg/kg vs no-drug,50%
same,time to conversion of AF to normal sinus rhythm,"[4]; IT 0.75 mg/kg, n=3, no-drug 16.2±0.9",8.1 ± 1.0 min
same,"AF conversion in representative electrograms, time after IT flecainide",[4]; IT 1.5 mg/kg (FIG. 65),5 min
same,shortening in AF duration,[4]; IT 1.5 mg/kg vs no drug,72%
same,time to conversion of AF to normal sinus rhythm (mean±SEM),"[4]; IT 1.5 mg/kg, n=5, no drug 12.3±1.9 min",3.4 ± 0.3 min
same,dominant frequency of AF,[4]; IT 0.75 and 1.5 mg/kg,reduced the dominant frequency of AF
same,relation of AF duration to dose,[4]; IT 0.75 and 1.5 mg/kg,AF duration correlated with flecainide dose
same,time for plasma concentration to reach levels required for conversion,[4]; IT 0.75 and 1.5 mg/kg (FIG. 66A),≤ 10 min
same,MAP and ventricular rate after conversion,[4]; IT 1.5 or 0.75 mg/kg,restored MAP and ventricular rate to baseline values
same,effectiveness in rapidly converting AF to normal sinus rhythm,[4]; IT 1.5 or 0.75 mg/kg,100%
same,pH of solution in water,2.6 mg/mL solution,5.0
same,appearance of solution,"diltiazem hydrochloride 50 mg/ml, flecainide acetate 30 mg/ml in distilled water",clear with no visible particulate matter
same,dose dependence of magnitude of HR increases,[5],not dose-dependent
same,magnitude of blood pressure changes vs placebo,[5],similar
same,HR,"[5]; iv, 2 mg/kg",An increase in HR was observed
same,systolic and diastolic BP,"[5]; iv, 2 mg/kg",Decreases in systolic and diastolic BP
same,elimination t1/2β,"[6]; both, human",9 to 12 h
same,Cmax of the two excluded subjects,"[6]; both, human, 40 mg",43.5 ng/mL
same,Cmax of the two excluded subjects,"[6]; both, human, 60 mg",51.3 ng/mL
same,Tmax in excluded subjects,"[6]; both, human, 60 mg",greater than 15 minutes
same,Dist. t1/2α,[6]; [8],3.86 (34) min
same,Elim. t1/2β,[6]; [8],9.87 (25) hours
same,Dist. t1/2α,[6]; [9],4.19 (39) min
same,Elim. t1/2β,[6]; [9],9.0 (24) hours
same,Dist. t1/2α,[6]; [10],3.47 (17) min
same,Elim. t1/2β,[6]; [10],12.0 (14) hours
same,dose dependence of Cmax and AUCLast,[6]; human,dose-dependent
same,dose dependence of distribution phase and elimination half-life,[6]; human,independent of the doses
same,plasma concentration in subjects with near-equal ΔQRS (12.0 to 16 msec),[6]; human,85 ± 40.3 ng/mL
same,Tmax (min after EOI),"[6]; human, inhaled or intranasal, 30 mg","0.5 (0, 1) min"
same,plasma concentration in subjects with near-equal ΔQRS (12.0 to 16 msec),"[6]; human, iv",222 ± 23 ng/mL
same,Tmax (min after EOI),"[6]; human, iv, 2 mg/kg","1 (0, 60) min"
same,dose proportionality of venous plasma concentrations,[6],near dose proportionality
same,"venous plasma concentration-time curves, inhaled vs IV",[6]; 2 mg/kg,similar
same,"concentration-time profile curves, IV normalized to 30 mg vs inhaled 30 mg eTLD",[6]; iv,near-identical
same,time of peak LV and venous plasma levels,[7],2 min
